Reference: PubChem BioAssay (NCI)
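Step 1: Grow cells in 96-well plates. Step 2: Expose to compound for 48 hours at 5 concentrations. Step 3: Interpolate endpoints linearly; if unreached, use highest concentration. TGI is the concentration that stops growth completely.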

Tests used:
Experiment in all cases: growth of human tumour cells (NCI), 48 h
CAKI-1 renal = system: CAKI-1 renal
M14 melanoma = system: M14 melanoma
SW-620 colon = system: SW-620 colon
SK-OV-3 ovarian = system: SK-OV-3 ovarian
RPMI-8226 leukemia = system: RPMI-8226 leukemia
UACC-62 melanoma = system: UACC-62 melanoma
SR leukemia = system: SR leukemia
OVCAR-5 ovarian = system: OVCAR-5 ovarian
NCI-H226 lung = system: NCI-H226 lung
COLO 205 colon = system: COLO 205 colon
T-47D breast = system: T-47D breast
HL-60(TB) leukemia = system: HL-60(TB) leukemia
HCT-116 colon = system: HCT-116 colon
K-562 leukemia = system: K-562 leukemia
OVCAR-3 ovarian = system: OVCAR-3 ovarian
A498 renal = system: A498 renal
PC-3 prostate = system: PC-3 prostate
HOP-62 NSCLC = system: HOP-62 NSCLC
OVCAR-4 ovarian = system: OVCAR-4 ovarian
NCI-H23 lung = system: NCI-H23 lung
SF-295 CNS = system: SF-295 CNS
SNB-19 CNS = system: SNB-19 CNS
MDA-MB-231 breast = system: MDA-MB-231 breast
SK-MEL-5 melanoma = system: SK-MEL-5 melanoma
EKVX NSCLC = system: EKVX NSCLC
HOP-92 NSCLC = system: HOP-92 NSCLC
OVCAR-8 ovarian = system: OVCAR-8 ovarian
LOX IMVI melanoma = system: LOX IMVI melanoma
NCI-H522 lung = system: NCI-H522 lung
MALME-3M melanoma = system: MALME-3M melanoma
CCRF-CEM leukemia = system: CCRF-CEM leukemia
NCI-H460 lung = system: NCI-H460 lung
HCC-2998 colon = system: HCC-2998 colon
MDA-MB-435 = system: MDA-MB-435
HT29 colon = system: HT29 colon
A549 NSCLC = system: A549 NSCLC
786-0 renal = system: 786-0 renal
MOLT-4 leukemia = system: MOLT-4 leukemia
UACC-257 melanoma = system: UACC-257 melanoma
HCT-15 colon = system: HCT-15 colon
IGROV1 ovarian = system: IGROV1 ovarian
SK-MEL-2 melanoma = system: SK-MEL-2 melanoma
ACHN renal = system: ACHN renal
BT-549 breast = system: BT-549 breast
MDA-N = system: MDA-N
TK-10 renal = system: TK-10 renal
SN12C renal = system: SN12C renal
NCI/ADR-RES ovarian = system: NCI/ADR-RES ovarian
SK-MEL-28 melanoma = system: SK-MEL-28 melanoma
KM12 colon = system: KM12 colon
MCF7 breast = system: MCF7 breast
U251 CNS = system: U251 CNS
UO-31 renal = system: UO-31 renal
SF-539 CNS = system: SF-539 CNS
SF-268 CNS = system: SF-268 CNS
SNB-75 CNS = system: SNB-75 CNS
DU-145 prostate = system: DU-145 prostate
HS 578T breast = system: HS 578T breast
RXF 393 renal = system: RXF 393 renal

## CCOC(=O)C1=C(C)N(C)C23OC4(C(=O)OC)CC2c2ccccc2C1N3C4=O (stereo not given)
CAKI-1 renal
  TGI: > 100 µM
M14 melanoma
  TGI: > 100 µM
SW-620 colon
  TGI: > 100 µM
SK-OV-3 ovarian
  TGI: > 100 µM
RPMI-8226 leukemia
  TGI: > 100 µM
UACC-62 melanoma
  TGI: > 100 µM
SR leukemia
  TGI: > 100 µM
OVCAR-5 ovarian
  TGI: > 100 µM
NCI-H226 lung
  TGI: > 100 µM
COLO 205 colon
  TGI: > 100 µM
T-47D breast
  TGI: > 100 µM
HL-60(TB) leukemia
  TGI: > 100 µM
HCT-116 colon
  TGI: > 100 µM
K-562 leukemia
  TGI: > 100 µM
OVCAR-3 ovarian
  TGI: > 100 µM
A498 renal
  TGI: > 100 µM
PC-3 prostate
  TGI: > 100 µM
HOP-62 NSCLC
  TGI: > 100 µM
OVCAR-4 ovarian
  TGI: > 100 µM
NCI-H23 lung
  TGI: > 100 µM
SF-295 CNS
  TGI: > 100 µM
SNB-19 CNS
  TGI: > 100 µM
MDA-MB-231 breast
  TGI: > 100 µM
SK-MEL-5 melanoma
  TGI: > 100 µM
EKVX NSCLC
  TGI: > 100 µM
HOP-92 NSCLC
  TGI: > 100 µM
OVCAR-8 ovarian
  TGI: > 100 µM
LOX IMVI melanoma
  TGI: > 100 µM
NCI-H522 lung
  TGI: > 100 µM
MALME-3M melanoma
  TGI: > 100 µM
CCRF-CEM leukemia
  TGI: > 100 µM
NCI-H460 lung
  TGI: > 100 µM
HCC-2998 colon
  TGI: > 100 µM
MDA-MB-435
  TGI: > 100 µM
HT29 colon
  TGI: > 100 µM
A549 NSCLC
  TGI: > 100 µM
786-0 renal
  TGI: > 100 µM
MOLT-4 leukemia
  TGI: > 100 µM
UACC-257 melanoma
  TGI: > 100 µM
HCT-15 colon
  TGI: > 100 µM
IGROV1 ovarian
  TGI: > 100 µM
SK-MEL-2 melanoma
  TGI: > 100 µM
ACHN renal
  TGI: > 100 µM
BT-549 breast
  TGI: > 100 µM
MDA-N
  TGI: > 100 µM
TK-10 renal
  TGI: > 100 µM
SN12C renal
  TGI: > 100 µM
NCI/ADR-RES ovarian
  TGI: > 100 µM
SK-MEL-28 melanoma
  TGI: > 100 µM
KM12 colon
  TGI: > 100 µM
MCF7 breast
  TGI: > 100 µM
U251 CNS
  TGI: > 100 µM
UO-31 renal
  TGI: > 100 µM
SF-539 CNS
  TGI: > 100 µM
SF-268 CNS
  TGI: > 100 µM
SNB-75 CNS
  TGI: > 100 µM
DU-145 prostate
  TGI: > 100 µM

## O=[N+]([O-])c1ccc(/C=N/n2c(CO)nc3ccccc32)o1
HS 578T breast
  TGI: 35.6 µM
CAKI-1 renal
  TGI: 24.8 µM
M14 melanoma
  TGI: 16.7 µM
SW-620 colon
  TGI: 29.1 µM
SK-OV-3 ovarian
  TGI: 71.9 µM
RPMI-8226 leukemia
  TGI: 19.6 µM
UACC-62 melanoma
  TGI: 21.9 µM
RXF 393 renal
  TGI: 18.3 µM
OVCAR-5 ovarian
  TGI: 24.7 µM
NCI-H226 lung
  TGI: 39.5 µM
COLO 205 colon
  TGI: 10.6 µM
T-47D breast
  TGI: 47.9 µM
HL-60(TB) leukemia
  TGI: 9.41 µM
HCT-116 colon
  TGI: 7.86 µM
K-562 leukemia
  TGI: 62.7 µM
OVCAR-3 ovarian
  TGI: 6.91 µM
A498 renal
  TGI: 32.4 µM
PC-3 prostate
  TGI: 26.1 µM
HOP-62 NSCLC
  TGI: 28.7 µM
OVCAR-4 ovarian
  TGI: 21.8 µM
NCI-H23 lung
  TGI: 20 µM
SF-295 CNS
  TGI: 25.2 µM
SNB-19 CNS
  TGI: 30.7 µM
MDA-MB-231 breast
  TGI: 20.6 µM
SK-MEL-5 melanoma
  TGI: 6.78 µM
EKVX NSCLC
  TGI: 23.6 µM
HOP-92 NSCLC
  TGI: 14.8 µM
OVCAR-8 ovarian
  TGI: 25.3 µM
LOX IMVI melanoma
  TGI: 15.9 µM
NCI-H522 lung
  TGI: 4.43 µM
MALME-3M melanoma
  TGI: 5.44 µM
CCRF-CEM leukemia
  TGI: 36.8 µM
NCI-H460 lung
  TGI: 16.3 µM
MDA-MB-435
  TGI: 13.9 µM
HT29 colon
  TGI: 10.3 µM
A549 NSCLC
  TGI: 36.5 µM
786-0 renal
  TGI: 17.9 µM
MOLT-4 leukemia
  TGI: 7.12 µM
UACC-257 melanoma
  TGI: 6.25 µM
HCT-15 colon
  TGI: 15.7 µM
IGROV1 ovarian
  TGI: 6.09 µM
SK-MEL-2 melanoma
  TGI: 24.1 µM
ACHN renal
  TGI: 17.3 µM
BT-549 breast
  TGI: 27.6 µM
MDA-N
  TGI: 13.3 µM
TK-10 renal
  TGI: 19.2 µM
SN12C renal
  TGI: 18.1 µM
NCI/ADR-RES ovarian
  TGI: 74.7 µM
SK-MEL-28 melanoma
  TGI: 12.6 µM
KM12 colon
  TGI: 15.4 µM
MCF7 breast
  TGI: 15.2 µM
U251 CNS
  TGI: 37.2 µM
UO-31 renal
  TGI: 22.9 µM
SF-539 CNS
  TGI: 55 µM
SF-268 CNS
  TGI: 22.7 µM
SNB-75 CNS
  TGI: 57.1 µM
DU-145 prostate
  TGI: 13.9 µM

## CCOC(=O)C1=CC(C)(C(=O)OCC)Nc2c(nc(OC)n(C)c2=O)N1 (stereo not given)
HS 578T breast
  TGI: > 10 µM
CAKI-1 renal
  TGI: > 10 µM
M14 melanoma
  TGI: > 10 µM
SW-620 colon
  TGI: > 10 µM
SK-OV-3 ovarian
  TGI: > 10 µM
RPMI-8226 leukemia
  TGI: > 10 µM
RXF 393 renal
  TGI: > 10 µM
OVCAR-5 ovarian
  TGI: > 10 µM
NCI-H226 lung
  TGI: > 10 µM
COLO 205 colon
  TGI: > 10 µM
T-47D breast
  TGI: > 10 µM
HCT-116 colon
  TGI: > 10 µM
K-562 leukemia
  TGI: > 10 µM
OVCAR-3 ovarian
  TGI: > 10 µM
A498 renal
  TGI: > 10 µM
PC-3 prostate
  TGI: > 10 µM
HOP-62 NSCLC
  TGI: > 10 µM
OVCAR-4 ovarian
  TGI: > 10 µM
NCI-H23 lung
  TGI: > 10 µM
SF-295 CNS
  TGI: > 10 µM
SNB-19 CNS
  TGI: > 10 µM
MDA-MB-231 breast
  TGI: > 10 µM
SK-MEL-5 melanoma
  TGI: > 10 µM
EKVX NSCLC
  TGI: > 10 µM
HOP-92 NSCLC
  TGI: > 10 µM
OVCAR-8 ovarian
  TGI: > 10 µM
LOX IMVI melanoma
  TGI: > 10 µM
NCI-H522 lung
  TGI: > 10 µM
MALME-3M melanoma
  TGI: > 10 µM
CCRF-CEM leukemia
  TGI: > 10 µM
NCI-H460 lung
  TGI: > 10 µM
HCC-2998 colon
  TGI: > 10 µM
MDA-MB-435
  TGI: > 10 µM
HT29 colon
  TGI: > 10 µM
A549 NSCLC
  TGI: > 10 µM
786-0 renal
  TGI: > 10 µM
MOLT-4 leukemia
  TGI: > 10 µM
UACC-257 melanoma
  TGI: > 10 µM
HCT-15 colon
  TGI: > 10 µM
IGROV1 ovarian
  TGI: > 10 µM
SK-MEL-2 melanoma
  TGI: > 10 µM
ACHN renal
  TGI: > 10 µM
BT-549 breast
  TGI: > 10 µM
MDA-N
  TGI: > 10 µM
TK-10 renal
  TGI: > 10 µM
SN12C renal
  TGI: > 10 µM
NCI/ADR-RES ovarian
  TGI: > 10 µM
SK-MEL-28 melanoma
  TGI: > 10 µM
KM12 colon
  TGI: > 10 µM
MCF7 breast
  TGI: > 10 µM
U251 CNS
  TGI: > 10 µM
UO-31 renal
  TGI: > 10 µM
SF-539 CNS
  TGI: > 10 µM
SF-268 CNS
  TGI: > 10 µM
SNB-75 CNS
  TGI: > 10 µM
DU-145 prostate
  TGI: > 10 µM
